Target: human JAK1 (a.a. 837-1142)
Test: In vitro JAK kinase assay (HTRF, phosphorylation of a biotinylated peptide), JAK1
Type: biochemical
Conditions: measured at 1 mM ATP; JAK2 IC50 / JAK1 IC50
Method in brief: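 N-terminal His-tagged catalytic domains, baculovirus-expressed in insect cells, phosphorylated a biotinylated peptide for 1 hr at room temperature. EDTA stop was followed by SA-APC and Eu-Py20 antibody for 40 minutes, with phosphopeptide read by HTRF.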

Question: For N#CCC1(n2cc(-c3ncnc4[nH]ccc34)cn2)CN(C2CCN(S(=O)(=O)C3CCCC3)CC2)C1 [Example 253, {1-[1-(cyclopentylsulfonyl)piperidin-4-yl]-3-[4-(7H-pyrrolo[2,3-d]pyrimidin-4-yl)-1H-pyrazol-1-yl]azetidin-3-yl}acetonitrile], which “IC50 Ratio JAK2/JAK1” value is on record?
Answer: The value was 5.8.

Question: How did the “IC50 Ratio JAK2/JAK1” value turn out when Cn1cnc(S(=O)(=O)N2CCC(N3CC(CC#N)(n4cc(-c5ncnc6[nH]ccc56)cn4)C3)CC2)c1 [Example 258, {1-{1-[(1-methyl-1H-imidazol-4-yl)sulfonyl]piperidin-4-yl}-3-[4-(7H-pyrrolo[2,3-d]pyrimidin-4-yl)-1H-pyrazol-1-yl]azetidin-3-yl}acetonitrile] was run?
Answer: The value was 5.0.

Question: How did the “IC50 Ratio JAK2/JAK1” value turn out when Cc1nc(S(=O)(=O)N2CCC(N3CC(CC#N)(n4cc(-c5ncnc6[nH]ccc56)cn4)C3)CC2)cn1C [Example 259, {1-{1-[(1,2-dimethyl-1H-imidazol-4-yl)sulfonyl]piperidin-4-yl}-3-[4-(7H-pyrrolo[2,3-d]pyrimidin-4-yl)-1H-pyrazol-1-yl]azetidin-3-yl}acetonitrile] was run?
Answer: The value was 4.6.

Question: Which “IC50 Ratio JAK2/JAK1” value does the source give for Cc1noc(C)c1S(=O)(=O)N1CCC(N2CC(CC#N)(n3cc(-c4ncnc5[nH]ccc45)cn3)C2)CC1 [Example 260, {1-{1-[(3,5-dimethylisoxazol-4-yl)sulfonyl]piperidin-4-yl}-3-[4-(7H-pyrrolo[2,3-d]pyrimidin-4-yl)-1H-pyrazol-1-yl]azetidin-3-yl}acetonitrile] here?
Answer: The value was 7.1.

Question: Which “IC50 Ratio JAK2/JAK1” value does the source give for N#CCC1(n2ccc(-c3ncnc4[nH]ccc34)c2)CN(C2CCN(C(=O)c3cccc(C#N)c3)CC2)C1 [Example 262, 3-[(4-{3-(cyanomethyl)-3-[3-(7H-pyrrolo[2,3-d]pyrimidin-4-yl)-1H-pyrrol-1-yl]azetidin-1-yl}piperidin-1-yl)carbonyl]benzonitrile] here?
Answer: Its value is 7.4.

Question: For N#CCC1(n2ccc(-c3ncnc4[nH]ccc34)c2)CN(C2CCN(C(=O)c3ccc(C#N)cc3F)CC2)C1 [Example 264, 4-[(4-{3-(cyanomethyl)-3-[3-(7H-pyrrolo[2,3-d]pyrimidin-4-yl)-1H-pyrrol-1-yl]azetidin-1-yl}piperidin-1-yl)carbonyl]-3-fluorobenzonitrile], which “IC50 Ratio JAK2/JAK1” value is on record?
Answer: Its value is 9.5.

Question: With N#CCC1(n2ccc(-c3ncnc4[nH]ccc34)c2)CN(C2CCN(C(=O)c3c(F)cc(C#N)cc3F)CC2)C1 [Example 265, 4-[(4-{3-(cyanomethyl)-3-[3-(7H-pyrrolo[2,3-d]pyrimidin-4-yl)-1H-pyrrol-1-yl]azetidin-1-yl}piperidin-1-yl)carbonyl]-3,5-difluorobenzonitrile] as the compound, how does the “IC50 Ratio JAK2/JAK1” value read?
Answer: The value was 6.6.

Question: Which “IC50 Ratio JAK2/JAK1” value does the source give for N#CCC1(n2ccc(-c3ncnc4[nH]ccc34)c2)CN(C2CCN(C(=O)c3cc(F)ccc3C(F)(F)F)CC2)C1 [Example 266, {1-{1-[5-fluoro-2-(trifluoromethyl)benzoyl]piperidin-4-yl}-3-[3-(7H-pyrrolo[2,3-d]pyrimidin-4-yl)-1H-pyrrol-1-yl]azetidin-3-yl}acetonitrile] here?
Answer: Its value is 6.6.

Question: Which “IC50 Ratio JAK2/JAK1” value does the source give for N#CCC1(n2ccc(-c3ncnc4[nH]ccc34)c2)CN(C2CCN(C(=O)c3ccc(C(F)(F)F)c(F)c3)CC2)C1 [Example 267, {1-{1-[3-fluoro-4-(trifluoromethyl)benzoyl]piperidin-4-yl}-3-[3-(7H-pyrrolo[2,3-d]pyrimidin-4-yl)-1H-pyrrol-1-yl]azetidin-3-yl}acetonitrile] here?
Answer: The value was 6.6.

Question: N#CCC1(n2ccc(-c3ncnc4[nH]ccc34)c2)CN(C2CCN(C(=O)c3cccc(C(F)(F)F)c3)CC2)C1 [Example 268, (3-[3-(7H-pyrrolo[2,3-d]pyrimidin-4-yl)-1H-pyrrol-1-yl]-1-{1-[3-(trifluoromethyl)benzoyl]piperidin-4-yl}azetidin-3-yl)acetonitrile] was tested. Which “IC50 Ratio JAK2/JAK1” value did it give?
Answer: The value was 3.1.

Question: How did the “IC50 Ratio JAK2/JAK1” value turn out when N#CCC1(n2ccc(-c3ncnc4[nH]ccc34)c2)CN(C2CCN(C(=O)c3cc(OC(F)(F)F)ccc3F)CC2)C1 [Example 269] was run?
Answer: The value was 5.0.

Question: N#CCC1(n2ccc(-c3ncnc4[nH]ccc34)c2)CN(C2CCN(C(=O)c3c(F)ccc(F)c3F)CC2)C1 [Example 270, {3-[3-(7H-pyrrolo[2,3-d]pyrimidin-4-yl)-1H-pyrrol-1-yl]-1-[1-(2,3,6-trifluorobenzoyl)piperidin-4-yl]azetidin-3-yl}acetonitrile] was tested. Which “IC50 Ratio JAK2/JAK1” value did it give?
Answer: The value was 6.1.

Question: How did the “IC50 Ratio JAK2/JAK1” value turn out when N#CCC1(n2ccc(-c3ncnc4[nH]ccc34)c2)CN(C2CCN(C(=O)c3cccs3)CC2)C1 [Example 271, {3-[3-(7H-pyrrolo[2,3-d]pyrimidin-4-yl)-1H-pyrrol-1-yl]-1-[1-(2-thienylcarbonyl)piperidin-4-yl]azetidin-3-yl}acetonitrile] was run?
Answer: Its value is 7.8.

Question: How did the “IC50 Ratio JAK2/JAK1” value turn out when N#CCC1(n2ccc(-c3ncnc4[nH]ccc34)c2)CN(C2CCN(C(=O)c3ccc(C(F)(F)F)cc3F)CC2)C1 [Example 272, {1-{1-[2-fluoro-4-(trifluoromethyl)benzoyl]piperidin-4-yl}-3-[3-(7H-pyrrolo[2,3-d]pyrimidin-4-yl)-1H-pyrrol-1-yl]azetidin-3-yl}acetonitrile] was run?
Answer: Its value is 6.5.

Question: N#CCC1(n2ccc(-c3ncnc4[nH]ccc34)c2)CN(C2CCN(C(=O)c3cc(C(F)(F)F)ccc3F)CC2)C1 [Example 273, {1-{1-[2-fluoro-5-(trifluoromethyl)benzoyl]piperidin-4-yl}-3-[3-(7H-pyrrolo[2,3-d]pyrimidin-4-yl)-1H-pyrrol-1-yl]azetidin-3-yl}acetonitrile] was tested. Which “IC50 Ratio JAK2/JAK1” value did it give?
Answer: The value was 4.4.

Question: For N#CCC1(n2ccc(-c3ncnc4[nH]ccc34)c2)CN(C2CCN(C(=O)c3cc(F)cc(C(F)(F)F)c3)CC2)C1 [Example 274, {1-{1-[3-fluoro-5-(trifluoromethyl)benzoyl]piperidin-4-yl}-3-[3-(7H-pyrrolo[2,3-d]pyrimidin-4-yl)-1H-pyrrol-1-yl]azetidin-3-yl}acetonitrile], which “IC50 Ratio JAK2/JAK1” value is on record?
Answer: Its value is 9.0.

Question: How did the “IC50 Ratio JAK2/JAK1” value turn out when N#CCC1(n2ccc(-c3ncnc4[nH]ccc34)c2)CN(C2CCN(C(=O)c3ccc(F)c(C(F)(F)F)c3)CC2)C1 [Example 275, {1-{1-[4-fluoro-3-(trifluoromethyl)benzoyl]piperidin-4-yl}-3-[3-(7H-pyrrolo[2,3-d]pyrimidin-4-yl)-1H-pyrrol-1-yl]azetidin-3-yl}acetonitrile] was run?
Answer: Its value is 3.1.

Question: For N#CCC1(n2ccc(-c3ncnc4[nH]ccc34)c2)CN(C2CCN(C(=O)c3cccc(F)c3F)CC2)C1 [Example 276, {1-[1-(2,3-difluorobenzoyl)piperidin-4-yl]-3-[3-(7H-pyrrolo[2,3-d]pyrimidin-4-yl)-1H-pyrrol-1-yl]azetidin-3-yl}acetonitrile], which “IC50 Ratio JAK2/JAK1” value is on record?
Answer: The value was 4.0.

Question: With N#CCC1(n2ccc(-c3ncnc4[nH]ccc34)c2)CN(C2CCN(C(=O)c3ccc(F)c(F)c3)CC2)C1 [Example 277, {1-[1-(3,4-difluorobenzoyl)piperidin-4-yl]-3-[3-(7H-pyrrolo[2,3-d]pyrimidin-4-yl)-1H-pyrrol-1-yl]azetidin-3-yl}acetonitrile] as the compound, how does the “IC50 Ratio JAK2/JAK1” value read?
Answer: Its value is 9.8.

Question: For N#CCC1(n2ccc(-c3ncnc4[nH]ccc34)c2)CN(C2CCN(C(=O)c3cc(F)ccc3F)CC2)C1 [Example 278, {1-[1-(2,5-difluorobenzoyl)piperidin-4-yl]-3-[3-(7H-pyrrolo[2,3-d]pyrimidin-4-yl)-1H-pyrrol-1-yl]azetidin-3-yl}acetonitrile], which “IC50 Ratio JAK2/JAK1” value is on record?
Answer: Its value is 5.6.

Question: For N#CCC1(n2ccc(-c3ncnc4[nH]ccc34)c2)CN(C2CCN(C(=O)c3c(F)cccc3F)CC2)C1 [Example 279, {1-[1-(2,6-difluorobenzoyl)piperidin-4-yl]-3-[3-(7H-pyrrolo[2,3-d]pyrimidin-4-yl)-1H-pyrrol-1-yl]azetidin-3-yl}acetonitrile], which “IC50 Ratio JAK2/JAK1” value is on record?
Answer: The value was 4.1.

Question: Which “IC50 Ratio JAK2/JAK1” value does the source give for N#CCC1(n2ccc(-c3ncnc4[nH]ccc34)c2)CN(C2CCN(C(=O)c3ccc(F)c(F)c3F)CC2)C1 [Example 280, {3-[3-(7H-pyrrolo[2,3-d]pyrimidin-4-yl)-1H-pyrrol-1-yl]-1-[1-(2,3,4-trifluorobenzoyl)piperidin-4-yl]azetidin-3-yl}acetonitrile] here?
Answer: The value was 7.5.

Question: With N#CCC1(n2ccc(-c3ncnc4[nH]ccc34)c2)CN(C2CCN(C(=O)c3cccc(OC(F)(F)F)c3F)CC2)C1 [Example 281, {1-{1-[2-fluoro-3-(trifluoromethoxy)benzoyl]piperidin-4-yl}-3-[3-(7H-pyrrolo[2,3-d]pyrimidin-4-yl)-1H-pyrrol-1-yl]azetidin-3-yl}acetonitrile] as the compound, how does the “IC50 Ratio JAK2/JAK1” value read?
Answer: Its value is 10.0.

Question: For N#CCC1(n2ccc(-c3ncnc4[nH]ccc34)c2)CN(C2CCN(C(=O)c3ccc(O)c(C(F)(F)F)c3)CC2)C1 [Example 282, {1-{1-[4-hydroxy-3-(trifluoromethyl)benzoyl]piperidin-4-yl}-3-[3-(7H-pyrrolo[2,3-d]pyrimidin-4-yl)-1H-pyrrol-1-yl]azetidin-3-yl}acetonitrile], which “IC50 Ratio JAK2/JAK1” value is on record?
Answer: Its value is 3.4.

Question: For COc1ncccc1NC(=O)N1CCC(N2CC(CC#N)(n3ccc(-c4ncnc5[nH]ccc45)c3)C2)CC1 [Example 284, 4-{3-(cyanomethyl)-3-[3-(7H-pyrrolo[2,3-d]pyrimidin-4-yl)-1H-pyrrol-1-yl]azetidin-1-yl}-N-(2-methoxypyridin-3-yl)piperidine-1-carboxamide], which “IC50 Ratio JAK2/JAK1” value is on record?
Answer: The value was 5.8.

Question: Which “IC50 Ratio JAK2/JAK1” value does the source give for Cc1nc(C(F)(F)F)ccc1NC(=O)N1CCC(N2CC(CC#N)(n3ccc(-c4ncnc5[nH]ccc45)c3)C2)CC1 [Example 285, 4-{3-(cyanomethyl)-3-[3-(7H-pyrrolo[2,3-d]pyrimidin-4-yl)-1H-pyrrol-1-yl]azetidin-1-yl}-N-[2-methyl-6-(trifluoromethyl)pyridin-3-yl]piperidine-1-carboxamide] here?
Answer: Its value is 5.7.

Question: N#CCC1(n2ccc(-c3ncnc4[nH]ccc34)c2)CN(C2CCN(C(=O)Nc3ccccc3C#N)CC2)C1 [Example 287, 4-{3-(cyanomethyl)-3-[3-(7H-pyrrolo[2,3-d]pyrimidin-4-yl)-1H-pyrrol-1-yl]azetidin-1-yl}-N-(2-cyanophenyl)piperidine-1-carboxamide] was tested. Which “IC50 Ratio JAK2/JAK1” value did it give?
Answer: Its value is 6.7.

From patent publication US10695337B2, “Piperidin-4-yl azetidine derivatives as JAK1 inhibitors” (Incyte Corporation, priority 2010, dated 2020)
